Holding throughout (type): in vivo
In one experiment the test system is Colletotrichum truncatum. Briefly: Anthracnose severity in soybean 14 days after the third application (Table 5), Rondonópolis-MT. The following applies: for Severity (%) C. truncatum: 14 days after the third application; for control of anthracnose (C. truncatum) in soybean crops, in words: isolated use, PrioriXtra under conditions of high disease severity. The text has this: (§1) In addition to these benefits, the association of the three fungicides—tebuconazole, carbendazim and azoxystrobin or tebuconazole, carbendazim and kresoxim-methyl provides greater safety regarding protection against the emergence of fungi resistant to fungicides and improved control spectrum.

Experiment [1] deals with Phakopsora pachyrhizi Sydow. Briefly: Field trial, interactions of fungicides for control of Asian soybean rust, flutriafol series (Tables 2 and 4), Rondonópolis-MT. Particulars: for Control (%) Lower canopy, obtained by AUDPC / Control (%) Upper canopy, obtained by AUDPC: rates g/há ai: Kresoxim-methyl 125, Azoxystrobin 30, Flutriafol 62.5, Flut+Carb+Kresoxim 62.5 + 200 + 125, Flut+Carb+Azoxystrobin 62.5 + 200 + 30, Flut+Carb 62.5 + 200. The protocol:
(§2) A study was prepared to analyze the interaction effect using the multiplicative model of distribution proposed by Colby (1967), using Equation 1 below to calculate the expected response: […]
(§3) wherein E is the expected reduction in disease development (such as the reduction in the percentage of expected control or the reduction in the area under the disease-progress curve), and x and y represent the reduction in disease development achieved by treatment with fungicide x and y, respectively.
Regarding the study of the interaction effect for the association of flutriafol+carbendazim+azoxystrobin and flutriafol+carbendazim+kresoxim-methyl, the model proposed by Colby was used.

For the next experiment, the system named is Corynespora cassiicola. Briefly: Target spot severity in soybean 14 days after the third application (Table 5), Rondonópolis-MT. Particulars: for Severity (%) C. cassiicola: 14 days after the third application; for control of target spot (C. cassiicola) in soybean crops, in words: isolated use, PrioriXtra under conditions of high disease severity.
From the text: as §1

Experiment [2] deals with Phakopsora pachyrhizi Sydow. Particulars: three preventive applications from R1. The protocol:
This study was conducted to evaluate the efficacy of the products in the control of Asian soybean rust. Preventive applications started in R1, with the second application occurring 20 days after the first application and the third application 15 days after the second. Emulsifiable mineral oil Assist was added, at the dose of 0.5% v/v in all treatments, except for the PrioriXtra treatments, in which 0.5% v/v Nimbus was added, and Fox, in which Aureo was added at the dose of 0.4 L/ha.

In experiment [3] the test system is Phakopsora pachyrhizi Sydow. Briefly: Field trial, interactions of fungicides for control of Asian soybean rust, tebuconazole series (Tables 1 and 3), Rondonópolis-MT. The following applies: for control of rust (Phakopsora pachyrhizi Sydow) in soybean crops, in words: isolated use; for Control (%) Lower canopy, obtained by AUDPC / Control (%) Upper canopy, obtained by AUDPC: rates g/ha ai: Kresoxim-methyl 125, Azoxystrobin 30, Tebuconazole 100, Teb+Carb+Kresoxim 100 + 200 + 125, Teb+Carb+Azoxystrobin 100 + 200 + 30, Teb+Carb 100 + 200.
From the text: (See Table 1 below), carbendazim even at a dose of 250 g/ha ai, and tebuconazole at the dose of 100 g/ha ai.
The association of azoxystrobin with the tebuconazole+carbendazim mixture (BF 488) provided a control efficacy gain and a residual control effect even under high pressure of Asian rust. […] The addition of azoxystrobin from 6 g/ha ai in the mixture of tebuconazole+carbendazim (100+200 g/ha ai, respectively) has already reflected in rust efficacy gain, providing control similar to the efficacy standard of azoxystrobin+cyproconazole (60+24 g/ha ai, respectively), and this product is marketed by Syngenta as PrioriXtra®. The addition of azoxystrobin in doses of 18, 24 and 30 g/ha ai together with tebuconazole+carbendazim was effective for obtaining yields higher than the market standard containing 60 g/ha of azoxystrobin.
The association of kresoxim-methyl with the tebuconazole+carbendazim mixture (BF 452) provided a control efficacy gain and a residual control effect even under high pressure of Asian rust. […] The addition of kresoxim-methyl from 75 g/ha ai in the mixture of tebuconazole+carbendazim (100+200 g/ha ai, respectively) has already reflected in rust efficacy gain, providing control similar to the efficacy standard of azoxystrobin+cyproconazole (60+24 g/ha ai, respectively), and this product is marketed by Syngenta as PrioriXtra®.
as §2, §3
The possible interaction responses are: • a) antagonism, which is characterized by joint action of two fungicides showing the response of a test organism in their combination that is lower than the expected response, obtained by appropriate reference models, as proposed by Colby (1967); • b) synergism, which is the cooperative action of two fungicides showing a response in the test organism on the joint application that is higher than the expected response obtained by appropriate reference models, and • c) additive, which occurs when two fungicides react by presenting a response in the test organism on the joint application that is equal to the expected response obtained by appropriate reference models.
To use the model proposed by Colby, the association tebuconazole+carbendazim (100+200, respectively) was established for a comparative test with azoxystrobin or kresoxim-methyl and a response of the type of interaction (see Table 3 below).

Experiment [4] concerns Phakopsora pachyrhizi Sydow. Particulars: three preventive applications from R1. The protocol:
This study was conducted to evaluate the efficacy of the products in the control of Asian soybean rust (Favorita). Preventive applications started in R1, the second application was made 19 days after the first (in R4) and the third application was made 15 days after the second (in R5.3). Emulsifiable mineral oil Assist was added at the dose of 0.5% v/v in all treatments, except for the PrioriXtra treatments, in which 0.5% v/v Nimbus was added. […] The efficacy of BF 452 and BF 465 is consistent, reducing the disease throughout the soybean plant canopy.
This is another data set of the same source.

Experiment [5] deals with Phakopsora pachyrhizi Sydow. The following applies: three preventive applications from R1. The protocol: This study was conducted to evaluate the efficacy of the products in the control of Asian soybean rust (Valiosa). Preventive applications started in R1, the second application was made 19 days after the first (in R5.1) and the third application was made 15 days after the second (in R5.5). Emulsifiable mineral oil Assist was added at the dose of 0.5% v/v in all treatments, except for the PrioriXtra treatments, in which 0.5% v/v Nimbus was added.
The source holds these as a separate data set.

Experiment [6] deals with Phakopsora pachyrhizi Sydow. Particulars: three preventive applications from V9. The protocol: This study was conducted to evaluate the efficacy of the products in the control of Asian rust. The start of preventive applications in V9, the second application was made 20 days after the first (in R4) and the third application was made 15 days after the second. Emulsifiable mineral oil Assist was added, at the dose of 0.5% v/v in all treatments, except for the PrioriXtra treatments, in which 0.5% v/v Nimbus was added, and Fox, in which Aureo was added at the dose of 0.4 L/ha.

For experiment [7], the system named is Phakopsora pachyrhizi Sydow. Briefly: Field trial, soybean rust AUDPC and yield (Table 6), Rondonópolis-MT. The source says: The association of azoxystrobin with the tebuconazole+carbendazim mixture provided high control efficacy of rust (see Table 6 below). […] The association of the three fungicides tebuconazole, carbendazim and azoxystrobin provides effective control of target spot (Corynespora cassiicola) and anthracnose (Colletotrichum truncatum) (see Table 5 above), and contains fungicides with three modes of action—carbendazim (benzimidazole)—acting on the integrity of tubulin; tebuconazole (triazole)—sterol synthesis inhibitors; azoxystrobin (strobilurin)—inhibits mitochondrial respiration.
The association of kresoxim-methyl with the tebuconazole+carbendazim mixture provided high control efficacy of rust (see Table 6 above). […] The association of the three fungicides tebuconazole, carbendazim and kresoxim-methyl provides effective control of target spot (Corynespora cassiicola) and anthracnose (Colletotrichum truncatum) (see Table 5 above), and contains fungicides with three modes of action—carbendazim (benzimidazole)—acting on the integrity of tubulin; tebuconazole (triazole)—sterol synthesis inhibitors; […] (strobilurin)-inhibits mitochondrial respiration.

Structures are written as SMILES. Like-named read-outs stand apart in the source and are kept apart here.

Consider `OC(Cn1cncn1)(c1ccc(F)cc1)c1ccccc1F` (racemic) [flutriafol, (RS)-2,4′-difluoro-α-(1H-1,2,4-triazol-1-ylmethyl)benzhydryl alcohol], for which the “Severity (%) C. truncatum” value in the experiment with Colletotrichum truncatum (rate 62.5 g/ha a.i.) was 31.3%. Further, the “control of anthracnose (C. truncatum) in soybean crops, in words” value (“control of anthracnose (C. truncatum)” for short) with Colletotrichum truncatum is “not effective”. Also, in experiment [1] (isolated use), the “control of rust (Phakopsora pachyrhizi Sydow) in soybean crops, in words” value (“control of rust” below) is reported as “not effective in controlling rust”. In [1] (rate 62.5 g/ha a.i.), the “AUPDC* Lower Canopy” value is given as 1312.6, the “AUPDC* Upper Canopy” value is listed as 1097.2 and the Productivity was 1578.2 kg/ha. In experiment [1], the “Control (%) Lower canopy, obtained by AUDPC” value (shortened to “Control (%) Lower canopy”) was found to be 24.0% and the “Control (%) Upper canopy, obtained by AUDPC” value (“Control (%) Upper canopy” below) stood at 26.5%. Further, the “Severity (%) C. cassiicola” value with Corynespora cassiicola (rate 62.5 g/ha a.i.) came to 22.5%. Also, the “control of target spot (C. cassiicola) in soybean crops, in words” value (from here on “control of target spot (C. cassiicola)”) in the experiment with Corynespora cassiicola is listed as “not effective”.
Consider `CC(C)(C)C(O)(CCc1ccc(Cl)cc1)Cn1cncn1` (racemic) [tebuconazole, (RS)-1-p-chlorophenyl-4,4-dimethyl-3-(1H-1,2,4-triazol-1-ylmethyl)pentan-3-ol], for which the “efficacy in controlling soybean rust, in words” value (“efficacy” for short) in [2] was “not effective in controlling soybean rust”. Further, in experiment [3], the “control of rust” value is reported as “not effective in controlling rust”; the “Control (%) Lower canopy” value is 32%; the “Control (%) Upper canopy” value was determined as 71%. Besides, in experiment [3] (rate 100 g/ha a.i.), the “AUPDC* Lower Canopy” value was determined as 896.0, the “AUPDC* Upper Canopy” value is on record as 427.0 and the Productivity amounted to 2152.0 kg/ha. Further, the “Severity (%) C. truncatum” value in the experiment with Colletotrichum truncatum (rate 100 g/ha a.i.) stood at 30.0%. The “control of anthracnose (C. truncatum)” value in the experiment with Colletotrichum truncatum is “not effective”. The “efficacy” value in experiment [4] was “not effective in controlling soybean rust”. Besides, in experiment [5], the “efficacy” value was “not effective in controlling soybean rust”. The “Severity (%) C. cassiicola” value in the experiment on Corynespora cassiicola (rate 100 g/ha a.i.) was 23.5%. The “control of target spot (C. cassiicola)” value with Corynespora cassiicola is “not effective”. Also, the “efficacy” value in [6] is on record as “not effective in controlling soybean rust”. For the same compound, in experiment [7] (rate 100 g/ha a.i.), the “AUPDC* Lower Canopy” value came out at 747.4, the “AUPDC* Upper Canopy” value is recorded as 227.5 and the Productivity was determined as 2570.8 kg/ha.
With `COC(=O)Nc1nc2ccccc2[nH]1` [carbendazim], in experiment [3], the “control of rust” value is “not effective in controlling rust”. Moreover, in experiment [3] (rate 250 g/ha a.i.), the “AUPDC* Lower Canopy” value came out at 261.0, the “AUPDC* Upper Canopy” value is recorded as 1148.0 and the Productivity came out at 1324.0 kg/ha. For the same compound, in experiment [1] (rate 250 g/ha a.i.), the “AUPDC* Lower Canopy” value was found to be 1576.3, the “AUPDC* Upper Canopy” value is listed as 1317.0 and the Productivity worked out at 1293.0 kg/ha. In addition, in [7] (rate 250 g/ha a.i.), the “AUPDC* Lower Canopy” value came out at 361.8, the “AUPDC* Upper Canopy” value is reported as 247.5 and the Productivity worked out at 1323.7 kg/ha.
For the compound `CO/N=C(/C(=O)OC)c1ccccc1COc1ccccc1C` [kresoxim-methyl, methyl(E)-methoxyimino[α-(o-tolyloxy)-o-tolyl]acetate], in experiment [3], the “control of rust” value is reported as “not effective in controlling rust”; the “Control (%) Lower canopy” value is on record as 13%; the “Control (%) Upper canopy” value worked out at 34%. Besides, in experiment [3] (rate 125 g/ha a.i.), the “AUPDC* Lower Canopy” value came to 1146.0, the “AUPDC* Upper Canopy” value was determined as 978.0 and the Productivity is listed as 1349.0 kg/ha. The “Severity (%) C. truncatum” value in the experiment on Colletotrichum truncatum (rate 125 g/ha a.i.) turned out to be 19.5%. For the same compound, the “control of anthracnose (C. truncatum)” value in the experiment on Colletotrichum truncatum is listed as “not effective”. Further, in [1] (rate 125 g/ha a.i.), the “AUPDC* Lower Canopy” value amounted to 1415.8, the “AUPDC* Upper Canopy” value turned out to be 1261.3 and the Productivity worked out at 1479.5 kg/ha. In experiment [1], the “Control (%) Lower canopy” value is 18.0% and the “Control (%) Upper canopy” value is 15.5%. In the experiment on Corynespora cassiicola (rate 125 g/ha a.i.), the “Severity (%) C. cassiicola” value was 22.3%. The “control of target spot (C. cassiicola)” value in the experiment on Corynespora cassiicola is given as “not effective”. Moreover, in experiment [7] (rate 125 g/ha a.i.), the “AUPDC* Lower Canopy” value is listed as 1245.9, the “AUPDC* Upper Canopy” value is recorded as 1074.1 and the Productivity was 1848.5 kg/ha.

The values above are taken from patent US20150051231A1, “SYNERGISTIC COMBINATIONS OF TRIAZOLES, STROBILURINS AND BENZIMIDAZOLES, USES, FORMULATIONS, PRODUCTION PROCESSES AND APPLICATIONS USING THE SAME” (FMC Quimica do Brasil Ltda., priority 2010, published 2015).
